Broadly, the IC50 is the midpoint of a concentration-inhibition curve. Low readings indicate greater potency in that assay, high ones weaker potency in that assay.

37 compounds from patent US9493444B2 (Merck Patent GmbH, priority 2012, dated 2016) can be followed below.

Molecules are shown by their SMILES. Some results are limits rather than exact numbers.

For the assay, the system named is Wnt pathway (TCF-dependent transcription in HEK293 luciferase reporter cell line with ER-DSH construct). Put plainly: Cellular assay for Wnt pathway activity (luciferase reporter). As to conditions: Homo sapiens; Wnt pathway inhibition, HEK293 luciferase reporter cells (ER-DSH, TCF promoter), 24 hours incubation, estrogen-induced. The assay is classed as cell-based. The essentials:
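Luminescent luciferase read-out after 24 h compound exposure at 1 nM to 30 μM, with TCF-driven transcription switched on by estrogen addition. IC50 values come from curve fits of data normalized against the vehicle-only control.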
On the technique in general: A reporter such as luciferase makes a cellular process visible.
As to `COc1ccc(Oc2cncc(N(C)CCN(C)C(C)=O)n2)cc1OC` [Compound 140, N-(2-{[6-(3,4-Dimethoxy-phenoxy)-pyrazin-2-yl]-methyl-amino}-ethyl)-N-methyl-acetamide], the IC50 lay in the range of 1000 to 10000 nM.
The same measure for `CC(=O)N(C)CCN(C)c1cncc(Oc2ccc(OC(F)(F)F)cc2)n1` [Compound 131, N-Methyl-N-(2-{methyl-[6-(4-trifluoro-methoxy)-pyrazin-2-yl]-amino}-ethyl)-acetamide]: less than 200 nM; for `CC(=O)N(C)CCCc1cncc(Oc2ccc(-c3cccc(N4CCN(C)CC4)n3)cc2)c1` [Compound 316, N-Methyl-N-[3-(5-{4-[6-(4-methyl-piperazin-1-yl)-pyridin-2-yl]-phenoxy}-pyridin-3-yl)-propyl]-acetamide]: 1000 to 10000 nM.
Consider `CSc1ccc(Oc2cncc(N(C)CCN(C)C(C)=O)n2)cc1` [Compound 65, N-Methyl-N-(2-{methyl-[6-(4-methyl-sulfanyl-phenoxy)-pyrazin-2-yl]-amino}-ethyl)-acetamide], for which the IC50 is less than 200 nM.
The same measure for `CC(=O)N(C)CCCc1cncc(Oc2ccc(-c3ccc(N4CCOCC4)nc3)cc2)n1` [Compound 216, N-Methyl-N-(3-{6-[4-(6-morpholin-4-yl-pyridin-3-yl)-phenoxy]-pyrazin-2-yl}-propyl)-acetamide]: 200 to 1000 nM.
Compound `CC(=O)N(C)CCCc1cncc(Oc2ccc(-c3ccncc3C#N)cc2)n1` [Compound 213, N-(3-{6-[4-(3-Cyano-pyridin-4-yl)-phenoxy]-pyrazin-2-yl}-propyl)-N-methyl-acetamide] came in with an IC50 of 200 to 1000 nM.
The same measure for `CC(=O)Nc1ccc(-c2ccc(Oc3cncc(N(C)CCN(C)C(C)=O)n3)c(F)c2)nc1` [Compound 230, N-{6-[4-(6-{[2-(Acetyl-methyl-amino)-ethyl]-methyl-amino}-pyrazin-2-yloxy)-3-fluoro-phenyl]-pyridin-3-yl}-acetamide]: less than 200 nM; for `CC(=O)N(C)CCCc1cncc(Oc2ccc(-c3cnc(N)cn3)cc2F)n1` [Compound 269, N-(3-{6-[4-(5-Amino-pyrazin-2-yl)-2-fluoro-phenoxy]-pyrazin-2-yl}-propyl)-N-methyl-acetamide]: 200 to 1000 nM; for `CC(=O)N(C)CCN(C)c1cncc(Oc2ccc(-c3ccc(CN)nc3)cc2)n1` [Compound 309]: less than 200 nM.
The same measure for `CC(=O)N(C)CCN(C)c1cncc(Oc2ccc(-c3cc(N4CCN(C)CC4)ccn3)cc2)n1` [Compound 173, N-Methyl-N-{2-[methyl-(6-{4-[4-(4-methyl-piperazin-1-yl)-pyridin-2-yl]-phenoxy}-pyrazin-2-yl)-amino]-ethyl}-acetamide]: 1000 to 10000 nM.
Next, `CC(=O)N(C)CCNc1cncc(Oc2ccc(-c3cccnc3)c(F)c2F)n1` [Compound 302, N-{2-[6-(2,3-Difluoro-4-pyridin-3-yl-phenoxy)-pyrazin-2-ylamino]-ethyl}-N-methyl-acetamide]: 1000 to 10000 nM; `CC(=O)N(C)CCN(C)c1cncc(Oc2ccc(C3CCCCC3)cc2)n1` [Compound 99, N-(2-{[6-(4-Cyclohexyl-phenoxy)-pyrazin-2-yl]-methyl-amino}-ethyl)-N-methyl-acetamide]: 1000 to 10000 nM; `CC(=O)N(C)CCCc1cncc(Oc2ccc(-c3ccc(N4CCOCC4)nc3)cc2)c1` [Compound 318, N-Methyl-N-(3-{5-[4-(6-morpholin-4-yl-pyridin-3-yl)-phenoxy]-pyridin-3-yl}-propyl)-acetamide]: 200 to 1000 nM.
For the compound `CC(=O)N(C)CCNc1cncc(Oc2ccc(F)cc2)n1` [Compound 66, N-{2-[6-(4-Fluoro-phenoxy)-pyrazin-2-ylamino]-ethyl}-N-methyl-acetamide], the IC50 lay in the range of 1000 to 10000 nM.
Next, `COc1ccc(-c2ccc(Oc3cncc(N(C)CCN(C)C(C)=O)n3)cc2)nc1` [Compound 163, N-[2-({6-[4-(5-Methoxy-pyridin-2-yl)-phenoxy]-pyrazin-2-yl}-methyl-amino)-ethyl]-N-methyl-acetamide]: less than 200 nM; `CC(=O)N(C)CCN(C)c1cncc(Oc2ccc(N3CCNCC3)cc2)n1` [Compound 149, N-Methyl-N-(2-{methyl-[6-(4-piperazin-1-yl-phenoxy)-pyrazin-2-yl]-amino}-ethyl)-acetamide]: 1000 to 10000 nM.
Turning to `CC(=O)N(C)CCN(C)c1cncc(Oc2ccc(N3CCN(C(C)=O)CC3)cc2)n1` [Compound 87, N-[2-({6-[4-(4-Acetyl-piperazin-1-yl)-phenoxy]-pyrazin-2-yl}-methyl-amino)-ethyl]-N-methyl-acetamide], the IC50 was 200 to 1000 nM.
The same measure for `CC(=O)N(C)CCN(C)c1cncc(Oc2ccc(F)cc2)c1` [Compound 310, N-(2-{[5-(4-Fluoro-phenoxy)-pyridin-3-yl]-methyl-amino}-ethyl)-N-methyl-acetamide]: 1000 to 10000 nM; for `CC(=O)N(C)CCN(C)c1cncc(Oc2ccc(-c3cccc(C#N)n3)cc2)n1` [Compound 200, N-[2-({6-[4-(6-Cyano-pyridin-2-yl)-phenoxy]-pyrazin-2-yl}-methyl-amino)-ethyl]-N-methyl-acetamide]: less than 200 nM.
Next, `COc1cccc(Oc2cncc(N(C)CCN(C)C(C)=O)n2)c1` [Compound 41, N-(2-{[6-(3-Methoxy-phenoxy)-pyrazin-2-yl]-methyl-amino}-ethyl)-N-methyl-acetamide]: 1000 to 10000 nM.
Next, `CC(=O)N(C)CCN(C)c1cncc(Oc2ccc(-c3cc(Br)cnc3N)cc2)n1` [Compound 252, N-[2-({6-[4-(2-Amino-5-bromo-pyridin-3-yl)-phenoxy]-pyrazin-2-yl}-methyl-amino)-ethyl]-N-methyl-acetamide]: 200 to 1000 nM; `CC(=O)N(C)CCN(C)c1cncc(Oc2ccc3c(c2)C(=O)CC3)n1` [Compound 108, N-Methyl-N-(2-{methyl-[6-(3-oxo-indan-5-yloxy)-pyrazin-2-yl]-amino}-ethyl)-acetamide]: 1000 to 10000 nM.
Compound `COc1ccc(Oc2cncc(N(C)CCN(C)C(=O)Cc3sccc3Cl)n2)cc1` [Compound 53, 2-(3-Chloro-thiophen-2-yl)-N-(2-{[6-(4-methoxy-phenoxy)-pyrazin-2-yl]-methyl-amino}-ethyl)-N-methyl-acetamide] came in with an IC50 of 1000 to 10000 nM.
The same measure for `CC(=O)N(C)CCN(C)c1cncc(Oc2ccc(C(F)(F)F)cc2)n1` [Compound 121, N-Methyl-N-(2-{methyl-[6-(4-trifluoro-methyl-phenoxy)-pyrazin-2-yl]-amino}-ethyl)-acetamide]: 200 to 1000 nM.
The same measure for `CC(=O)N(C)CCN(C)c1cncc(Oc2ccc(C(C)C)cc2)n1` [Compound 95, N-(2-{[6-(4-Isopropyl-phenoxy)-pyrazin-2-yl]-methyl-amino}-ethyl)-N-methyl-acetamide]: less than 200 nM; for `COc1ccc(Oc2cncc(NCCN(C)C(C)=O)n2)cc1` [Compound 67, N-{2-[6-(4-Methoxy-phenoxy)-pyrazin-2-ylamino]-ethyl}-N-methyl-acetamide]: 1000 to 10000 nM; for `CC(=O)N(C)CCN(C)c1cncc(Oc2ccc(-c3ccc(C)cn3)cc2F)n1` [Compound 229, N-[2-({6-[2-Fluoro-4-(5-methyl-pyridin-2-yl)-phenoxy]-pyrazin-2-yl}-methyl-amino)-ethyl]-N-methyl-acetamide]: less than 200 nM.
Next, `CC(=O)N(C)CCN(C)c1cncc(Oc2ccc(Cl)cc2)n1` [Compound 36, N-(2-{[6-(4-Chloro-phenoxy)-pyrazin-2-yl]-methyl-amino}-ethyl)-N-methyl-acetamide]: 200 to 1000 nM; `CC(=O)N(C)CCN(C)c1cncc(Oc2ccc(-c3ccnc(N)n3)cc2)n1` [Compound 202, N-[2-({6-[4-(2-Amino-pyrimidin-4-yl)-phenoxy]-pyrazin-2-yl}-methyl-amino)-ethyl]-N-methyl-acetamide]: less than 200 nM.
As for `CCOC(=O)c1ccc(Oc2cncc(N(C)CCN(C)C(C)=O)n2)cc1` [Compound 115, 4-(6-{[2-(Acetyl-methyl-amino)-ethyl]-methyl-amino}-pyrazin-2-yloxy)-benzoic acid ethyl ester], the concentration for half-maximal inhibition (IC50) lay within 200 to 1000 nM.
Next, `CC(=O)N(C)CCNc1cncc(Oc2ccc(-c3ccnc(C#N)c3)cc2)n1` [Compound 288, N-(2-{6-[4-(2-Cyano-pyridin-4-yl)-phenoxy]-pyrazin-2-ylamino}-ethyl)-N-methyl-acetamide]: 1000 to 10000 nM.
The same measure for `CC(=O)N(C)CCN(C)c1cncc(Oc2ccc(Cl)cc2Cl)n1` [Compound 96, N-(2-{[6-(2,4-Dichloro-phenoxy)-pyrazin-2-yl]-methyl-amino}-ethyl)-N-methyl-acetamide]: 200 to 1000 nM.
Next, `CC(=O)N(C)CCNc1cncc(Oc2ccc(-c3ccc(F)cn3)cc2)n1` [Compound 262, N-(2-{6-[4-(5-Fluoro-pyridin-2-yl)-phenoxy]-pyrazin-2-ylamino}-ethyl)-N-methyl-acetamide]: 1000 to 10000 nM; `CC(=O)N(C)CCN(C)c1cncc(Oc2ccc(-c3ccccc3S(C)(=O)=O)cc2)n1` [Compound 150, N-(2-{[6-(2′-Methane-sulfonyl-biphenyl-4-yloxy)-pyrazin-2-yl]-methyl-amino}-ethyl)-N-methyl-acetamide]: less than 200 nM.
The compound `CC(=O)N(C)CCNc1cncc(Oc2ccc(-c3ccc(CO)nc3)cc2)n1` [Compound 254, N-(2-{6-[4-(6-Hydroxy-methyl-pyridin-3-yl)-phenoxy]-pyrazin-2-ylamino}-ethyl)-N-methyl-acetamide] gave an IC50 of 200 to 1000 nM.
Take `CC(=O)N(C)CCN(C)c1cncc(Oc2ccc(B(O)O)cc2)n1` [Compound 7, 4-(6-{[2-(Acetyl-methyl-amino)-ethyl]-methyl-amino}-pyrazin-2-yloxy)-boronic acid]: the IC50 is 200 to 1000 nM.
The same measure for `CC(=O)Nc1ccc(Oc2cncc(N(C)CCN(C)C(C)=O)n2)cc1` [Compound 94, N-(2-{[6-(4-Acetylamino-phenoxy)-pyrazin-2-yl]-methyl-amino}-ethyl)-N-methyl-acetamide]: 200 to 1000 nM.
